From ChEMBL document CHEMBL1201862, “PubChem BioAssay data set” (2004)
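Five concentrations, 48 hours, 96-well plates. Abbreviation: GI50, concentration required for 50% inhibition of growth.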 The source made the active and inactive calls. Cut-off read from the data, not from the text of the source: active = GI50 up to about 1.1 µM and inactive = higher.

Legend:
Assay in all cases: NCI anticancer screen, dose series, 48 h
A549 = system: A549
EKVX = system: EKVX
HOP-92 = system: HOP-92
K562 = system: K562
MCF7 = system: MCF7
MOLT-4 = system: MOLT-4
NCI-H226 = system: NCI-H226
NCI-H522 = system: NCI-H522
RPMI-8226 = system: RPMI-8226
RXF 393 = system: RXF 393
SF-539 = system: SF-539
SK-MEL-5 = system: SK-MEL-5
SN12C = system: SN12C
SNB-19 = system: SNB-19
SNB-75 = system: SNB-75
T47D = system: T47D
U-251 = system: U-251
UACC-62 = system: UACC-62
UO-31 = system: UO-31
MDA-N = system: MDA-N

Measured: GI50

CC(O)=C1C(=O)CCC1=O
inactive: A549 > 100 µM | EKVX > 100 µM | HOP-92 > 100 µM | K562 > 100 µM | MCF7 > 100 µM | MOLT-4 > 100 µM | NCI-H226 > 100 µM | NCI-H522 > 100 µM | RPMI-8226 > 100 µM | RXF 393 > 100 µM | SF-539 > 100 µM | SK-MEL-5 > 100 µM | SN12C > 100 µM | SNB-19 > 100 µM | SNB-75 > 100 µM | T47D > 100 µM | U-251 > 100 µM | UACC-62 > 100 µM | UO-31 > 100 µM

N#Cc1c(-c2ccc(Cl)cc2)cc(-c2ccc(Nc3ccnc4cc(Cl)ccc34)cc2)nc1N
inactive: A549 > 100 µM | EKVX > 100 µM | HOP-92 > 100 µM | K562 > 100 µM | NCI-H226 > 100 µM | NCI-H522 41.7 µM | RPMI-8226 > 100 µM | RXF 393 > 100 µM | SF-539 87.7 µM | SNB-19 28.8 µM | SNB-75 > 100 µM | T47D > 100 µM | U-251 97.1 µM | UACC-62 > 100 µM | UO-31 > 100 µM

O=C(C(O)c1cn(Cc2ccccc2)c2ccccc12)N1CCCCC1 (stereo unspecified)
inactive: A549 45 µM | EKVX 54.6 µM | HOP-92 > 100 µM | K562 30.2 µM | MOLT-4 39.9 µM | NCI-H226 34.4 µM | NCI-H522 44.4 µM | RPMI-8226 > 100 µM | RXF 393 > 10 µM | SF-539 > 100 µM | SK-MEL-5 30.1 µM | SN12C 82.6 µM | SNB-19 > 100 µM | SNB-75 > 100 µM | U-251 > 10 µM | UACC-62 95.1 µM | UO-31 > 100 µM

CCCCOCn1c(=O)[nH]c(=O)c2cc(Br)ccc21
inactive: A549 48.2 µM | EKVX 22.6 µM | HOP-92 51.1 µM | K562 51.8 µM | MCF7 42.5 µM | MDA-N 55.2 µM | MOLT-4 44.1 µM | NCI-H226 12.6 µM | RXF 393 42.3 µM | SF-539 > 100 µM | SK-MEL-5 33.1 µM | SN12C 48.1 µM | SNB-19 33.2 µM | SNB-75 39.7 µM | U-251 95.1 µM | UACC-62 42.5 µM | UO-31 18.5 µM

Cc1ccccc1NC(=O)c1c(C)oc2c1C(=O)c1ccccc1C2=O
inactive: A549 32.7 µM | EKVX > 72.6 µM | HOP-92 20.3 µM | K562 22.4 µM | MOLT-4 20.1 µM | NCI-H226 > 38.7 µM | NCI-H522 16.5 µM | RPMI-8226 22.6 µM | RXF 393 > 100 µM | SF-539 25.9 µM | SK-MEL-5 13.2 µM | SN12C > 53.7 µM | SNB-19 35.6 µM | SNB-75 39.7 µM | U-251 7.89 µM | UACC-62 22 µM | UO-31 > 85.3 µM

NC(=O)N/N=C\c1ccccc1OCc1cccc(COc2ccccc2/C=N\NC(N)=O)n1
inactive: A549 > 100 µM | EKVX 18 µM | HOP-92 27.2 µM | K562 > 100 µM | MCF7 > 100 µM | MDA-N > 100 µM | MOLT-4 > 100 µM | NCI-H226 73.6 µM | NCI-H522 64.4 µM | RPMI-8226 > 100 µM | RXF 393 12.9 µM | SF-539 19.3 µM | SK-MEL-5 > 100 µM | SN12C > 100 µM | SNB-19 30.8 µM | U-251 5.56 µM | UACC-62 19.1 µM | UO-31 29.9 µM

CC1(O)CC23CC(O)C4(O)C(CC(O)C4(C)C)C(C)(O)C2CCC1C3O (stereo unspecified)
inactive: A549 > 100 µM | EKVX > 100 µM | HOP-92 > 100 µM | K562 > 100 µM | MCF7 > 100 µM | MOLT-4 > 100 µM | NCI-H226 > 100 µM | NCI-H522 > 100 µM | SF-539 > 100 µM | SK-MEL-5 > 100 µM | SN12C > 100 µM | SNB-19 > 100 µM | T47D > 100 µM | U-251 > 100 µM | UACC-62 > 100 µM | UO-31 > 100 µM

O=C1C(Cl)=C(Cl)C(=O)C(CCNc2nccs2)=C1Cl
inactive: A549 > 100 µM | EKVX 24.5 µM | HOP-92 22.1 µM | K562 22.3 µM | MCF7 33 µM | MOLT-4 51.4 µM | NCI-H522 13.1 µM | RXF 393 22.4 µM | SF-539 33.7 µM | SK-MEL-5 19.5 µM | SN12C 29.3 µM | SNB-19 > 100 µM | SNB-75 23.3 µM | T47D 43.5 µM | U-251 36.3 µM | UACC-62 20.7 µM | UO-31 21.2 µM
